Data taken from patent publication US9394297B2, “Amides as pim inhibitors” (AMGEN INC., priority 2012, dated 2016).
Structures can show the parent of a compound that is named as a salt. Where two headings read alike, the source gives them in different places.

How the values were obtained:
Pim-1 = Pim-1 (Homo sapiens (Human), UniProt P11309); experiment: Pim-Mn enzyme assay (HTRF, 384-well), Pim-1; type: biochemical; conditions: Pim-1 enzyme 5 pM, ATP 1.5 μM, BAD (S112) 0.5 μM, HTRF, 22-point curve; read-out: Pim-1-Mn IC50 IP
Sequence of Pim-1 (P11309 whole entry): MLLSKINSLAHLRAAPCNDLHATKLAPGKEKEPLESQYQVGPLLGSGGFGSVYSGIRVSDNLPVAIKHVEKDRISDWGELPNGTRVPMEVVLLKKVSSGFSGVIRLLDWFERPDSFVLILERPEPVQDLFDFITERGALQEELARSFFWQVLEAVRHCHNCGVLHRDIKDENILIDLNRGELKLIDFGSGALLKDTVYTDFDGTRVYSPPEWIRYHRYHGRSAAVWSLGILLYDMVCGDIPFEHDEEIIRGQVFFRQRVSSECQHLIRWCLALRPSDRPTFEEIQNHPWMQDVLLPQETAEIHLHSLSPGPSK

Pim-2 = Pim-2 (Homo sapiens (Human), UniProt Q9P1W9); experiment: Pim-Mn enzyme assay (HTRF, 384-well), Pim-2; type: biochemical; conditions: Pim-2 enzyme 0.5 pM, ATP 1.5 μM, BAD (S112) 0.5 μM, HTRF, 22-point curve; read-out: Pim-2-Mn IC50 IP
Sequence of Pim-2 (Q9P1W9 whole entry): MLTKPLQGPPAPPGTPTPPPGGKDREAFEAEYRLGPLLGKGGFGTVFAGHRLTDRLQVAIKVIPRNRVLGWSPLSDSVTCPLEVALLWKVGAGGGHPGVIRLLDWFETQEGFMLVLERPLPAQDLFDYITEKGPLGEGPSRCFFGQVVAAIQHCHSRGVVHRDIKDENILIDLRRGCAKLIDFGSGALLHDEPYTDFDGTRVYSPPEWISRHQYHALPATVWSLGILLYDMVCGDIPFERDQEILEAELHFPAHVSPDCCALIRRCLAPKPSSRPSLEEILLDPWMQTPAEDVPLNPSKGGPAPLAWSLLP

KMS-12-BM cell lines = experiment: KMS12 #2 flow cytometry assay (phospho-BAD Ser112); type: cell-based; conditions: KMS-12-BM cells, pBAD Ser112 by flow cytometry, 110 min with compound, read-out: KMS-12-Flow IC50 IP

IC50 (Pim-1) [µM]	IC50 (Pim-2) [µM]	IC50 (KMS-12-BM cell lines; Homo sapiens, 110 min) [µM]	IC50 (KMS-12-BM cell lines) [µM]	SMILES
0.392	0.521	> 40		Cc1nc2cccc(-c3cc4c([nH]3)CCNC4=O)c2nc1Cl [Example 425, 2-(3-Chloro-2-methylquinoxalin-5-yl)-6,7-dihydro-1H-pyrrolo[3,2-c]pyridin-4(5H)-one]
0.0399	0.0474	> 40		Cc1nc2cccc(-c3cc4c([nH]3)CCNC4=O)c2nc1-c1ccccc1F [Example 428, 2-(3-(2-Fluorophenyl)-2-methylquinoxalin-5-yl)-6,7-dihydro-1H-pyrrolo[3,2-c]pyridin-4(5H)-one]
		0.0294		Cn1c(NC(C)(C)C)nc2c(-c3cc4c([nH]3)C3(CC3)NC4=O)cccc2c1=O [Example 456, 2′-(2-(tert-butylamino)-3-methyl-4-oxo-3,4-dihydro-8-quinazolinyl)-1′H-spiro[cyclopropane-1,6′-pyrrolo[3,4-b]pyrrol]-4′(5′H)-one]
		> 40		Cc1nc2cccc(-c3cc4c([nH]3)CCNC4=O)c2nc1-c1ccc(N)cc1Cl [Example 413, 2-(3-(4-amino-2-chlorophenyl)-2-methyl-5-quinoxalinyl)-1,5,6,7-tetrahydro-4H-pyrrolo[3,2-c]pyridin-4-one]
	0.000169	0.0308		Cn1c(NC(C)(C)C)nc2c(-c3cc4c([nH]3)CCNC4=O)cccc2c1=O [Example 448, 2-(tert-butylamino)-3-methyl-8-(4-oxo-4,5,6,7-tetrahydro-1H-pyrrolo[3,2-c]pyridin-2-yl)-4(3H)-quinazolinone]
		0.0483		Cn1c(NC(C)(C)C)nc2c(-c3cc4c([nH]3)CNC4=O)cccc2c1=O [Example 419, 2-(tert-butylamino)-3-methyl-8-(4-oxo-1,4,5,6-tetrahydropyrrolo[3,4-b]pyrrol-2-yl)-4(3H)-quinazolinone]
		21.8		Cc1nc2cccc(-c3cc4c([nH]3)CCNC4=O)c2nc1-c1cnccc1Cl [Example 412, 2-(3-(4-chloro-3-pyridinyl)-2-methyl-5-quinoxalinyl)-1,5,6,7-tetrahydro-4H-pyrrolo[3,2-c]pyridin-4-one]
		0.009		Cc1nc2cccc(-c3cc4c([nH]3)C(CCN)NC4=O)c2nc1NC(C)(C)C (stereo not drawn) [Example 463, 6-(2-aminoethyl)-2-(3-(tert-butylamino)-2-methyl-5-quinoxalinyl)-5,6-dihydropyrrolo[3,4-b]pyrrol-4(1H)-one]
		0.119		Cc1nc2cccc(-c3cc4c([nH]3)C(CO)NC4=O)c2nc1NC(C)(C)C (racemic) [Example 469, (R)-2-(3-(tert-butylamino)-2-methylquinoxalin-5-yl)-6-(hydroxymethyl)-5,6-dihydropyrrolo[3,4-b]pyrrol-4(1H)-one and (S)-2-(3-(tert-butylamino)-2-methylquinoxalin-5-yl)-6-(hydroxymethyl)-5,6-dihydropyrrolo[3,4-b]pyrrol-4(1H)-one]
			> 40	Cc1nc2cccc(-c3cc4c([nH]3)CCNC4=O)c2nc1N[C@H]1C[C@@H](N2CCOC2=O)C1 [Example 443, 3-((1s,3s)-3-((3-methyl-8-(4-oxo-4,5,6,7-tetrahydro-1H-pyrrolo[3,2-c]pyridin-2-yl)quinoxalin-2-yl)amino)cyclobutyl)oxazolidin-2-one]
		0.429		Cn1c(NC(C)(C)C)nc2c(-c3cc4n(c3)CCNC4=O)cccc2c1=O [Example 449, 2-(tert-butylamino)-3-methyl-8-(1-oxo-1,2,3,4-tetrahydropyrrolo[1,2-a]pyrazin-7-yl)-4(3H)-quinazolinone]
		0.471		Cc1nc2cccc(-c3cc4c([nH]3)CCNC4=O)c2nc1N[C@H]1C[C@@H](NCC(F)(F)F)C1 [Example 444]
0.000347		3		Cc1nc2cccc(-c3cc4c([nH]3)CCNC4=O)c2nc1N[C@H]1C[C@@H](N)C1 [Example 435, 2-(3-((cis-3-aminocyclobutyl)amino)-2-methylquinoxalin-5-yl)-6,7-dihydro-1H-pyrrolo[3,2-c]pyridin-4(5H)-one hydrochloride]

Further lines, the compound ahead of its results:

SMILES	IC50 (Pim-1) [µM]	IC50 (Pim-2) [µM]	IC50 (KMS-12-BM cell lines; Homo sapiens, 110 min) [µM]	IC50 (KMS-12-BM cell lines) [µM]
Cc1nc2cccc(-c3cc4c([nH]3)C(CO)NC4=O)c2nc1NC1(C)CC1 (stereo not drawn) [Example 360, 6-(hydroxymethyl)-2-(2-methyl-3-((1-methylcyclopropyl)amino)quinoxalin-5-yl)-5,6-dihydropyrrolo[3,4-b]pyrrol-4 (1H)-one]	0.00142	0.00137	0.0884	
Cc1nc2ccc(F)c(-c3cc4c([nH]3)[C@@H]([C@H](C)O)NC4=O)c2nc1NC1CC1 [Example 353, (6S)-2-(3-(cyclopropylamino)-6-fluoro-2-methyl-5-quinoxalinyl)-6-((1S)-1-hydroxyethyl)-5,6-dihydropyrrolo[3,4-b]pyrrol-4(1H)-one]	0.00226	0.0023	0.109	
CC(C)(C)Nc1nc2c(-c3cc4c([nH]3)CCNC4=O)cccc2nc1N [Example 304, 2-(2-amino-3-(tert-butylamino)quinoxalin-5-yl)-6,7-dihydro-1H-pyrrolo[3,2-c]pyridin-4(5H)-one]	0.000791	0.000429	0.0876	
Cc1cccc(C)c1-c1cnc2cccc(-c3cc4c([nH]3)CCNC4=O)c2n1 [Example 401, 2-(3-(2,6-dimethylphenyl)-5-quinoxalinyl)-1,5,6,7-tetrahydro-4H-pyrrolo[3,2-c]pyridin-4-one]	0.0195	0.0349	18.5	
C[C@H]1NC(=O)c2cc(-c3cccc4c(=O)[nH]c(NC(C)(C)C)nc34)[nH]c21 [Example 408, 2-(tert-butylamino)-8-((6R)-6-methyl-4-oxo-1,4,5,6-tetrahydropyrrolo[3,4-b]pyrrol-2-yl)-4(3H)-quinazolinone]	0.0001	0.00024	0.047	
Cc1nc2cccc(-c3cc4c([nH]3)CCNC4=O)c2nc1NC(C)(C)CNC(=O)OC(C)(C)C [Example 339, tert-butyl (2-methyl-2-((3-methyl-8-(4-oxo-4,5,6,7-tetrahydro-1H-pyrrolo[3,2-c]pyridin-2-yl)-2-quinoxalinyl)amino)propyl)carbamate]	0.0508		2.52	
CC(C)(C)Nc1ccc2cccc(-c3cc4c([nH]3)CCNC4=O)c2n1 [Example 340, 2-(2-(tert-butylamino)-8-quinolinyl)-1,5,6,7-tetrahydro-4H-pyrrolo[3,2-c]pyridin-4-one]			0.595	
Cc1nc2ccc(F)c(-c3cc4c([nH]3)[C@H](C)NC4=O)c2nc1NC(C)(C)C [Example 298, (6S)-2-(3-(tert-butylamino)-6-fluoro-2-methyl-5-quinoxalinyl)-6-methyl-5,6-dihydropyrrolo[3,4-b]pyrrol-4(1H)-one]			0.0571	
Cc1nc2ccc(F)c(-c3cc4c([nH]3)[C@@H](C)NC4=O)c2nc1NC(C)(C)C [Example 297, (6R)-2-(3-(tert-butylamino)-6-fluoro-2-methyl-5-quinoxalinyl)-6-methyl-5,6-dihydropyrrolo[3,4-b]pyrrol-4(1H)-one]			0.0284	
Cc1nc2cccc(-c3cc4c([nH]3)CCNC4=O)c2nc1-c1cccnc1Cl [Example 410, 2-(3-(2-chloro-3-pyridinyl)-2-methyl-5-quinoxalinyl)-1,5,6,7-tetrahydro-4H-pyrrolo[3,2-c]pyridin-4-one]			21.7	
Cc1nc2cccc(-c3cc4c([nH]3)[C@@H](C)NC4=O)c2nc1NCC(F)F [Example 382, (R)-2-(3-((2,2-difluoroethyl)amino)-2-methylquinoxalin-5-yl)-6-methyl-5,6-dihydropyrrolo[3,4-b]pyrrol-4(1H)-one]			0.0825	
Cc1nc2cccc(-c3cc4c([nH]3)CCN/C4=N\O)c2nc1NC(C)(C)C [Example 300, (E/Z)-2-(3-(tert-butylamino)-2-methylquinoxalin-5-yl)-6,7-dihydro-1H-pyrrolo[3,2-c]pyridin-4(5H)-one oxime]			> 10	
Cc1nc2cccc(-c3cc4c([nH]3)CCCNC4=O)c2nc1NC(C)(C)C [Example 305, 2-(3-(tert-butylamino)-2-methylquinoxalin-5-yl)-5,6,7,8-tetrahydropyrrolo[3,2-c]azepin-4(1H)-one]	0.00263		1.64	
Cc1nc2cccc(-c3cc4c([nH]3)[C@H](C)NC4=O)c2nc1NC(C)(C)C [Example 327, (6S)-2-(3-(tert-butylamino)-2-methyl-5-quinoxalinyl)-6-methyl-5,6-dihydropyrrolo[3,4-b]pyrrol-4(1H)-one]			0.0986	
CC(C)n1c(NC(C)(C)C)nc2c(-c3cc4c([nH]3)[C@@H](C)NC4=O)cccc2c1=O [Example 406, 2-(tert-butylamino)-3-(1-methylethyl)-8-((6R)-6-methyl-4-oxo-1,4,5,6-tetrahydropyrrolo[3,4-b]pyrrol-2-yl)-4(3H)-quinazolinone]			0.03	
CC(=O)N1CCc2[nH]c(-c3cccc4nc(C)c(NC(C)(C)C)nc34)cc2C1=O [Example 315, 5-acetyl-2-(3-(tert-butylamino)-2-methylquinoxalin-5-yl)-6,7-dihydro-1H-pyrrolo[3,2-c]pyridin-4(5H)-one]	0.0352		0.895	
C[C@H]1NC(=O)c2cc(-c3cccc4c(=O)[nH]c(N(C)C(C)(C)C)nc34)[nH]c21 [Example 407, 2-(tert-butyl(methyl)amino)-8-((6R)-6-methyl-4-oxo-1,4,5,6-tetrahydropyrrolo[3,4-b]pyrrol-2-yl)-4(3H)-quinazolinone]		0.0004	0.144	
C[C@H]1NC(=O)c2cc(-c3c(F)ccc4c(=O)n(C)c(NC(C)(C)C)nc34)[nH]c21 [Example 405, 2-(tert-butylamino)-7-fluoro-3-methyl-8-((6R)-6-methyl-4-oxo-1,4,5,6-tetrahydropyrrolo[3,4-b]pyrrol-2-yl)-4(3H)-quinazolinone]			0.028	
